Laboratory results taken from paper PMC9861757, “New Insights into Conformationally Restricted Carbonic Anhydrase Inhibitors” (Molecules, 2023).
pKi: −log10 of the molar value. Like-named read-outs stand apart in the source and are kept apart here.

Tests used:
human CA I [1] = molecular target: T1, human CA I (Homo sapiens, UniProt P00915); experiment: stopped-flow CO2 hydrase assay, CA I inhibition; conditions: for inhibition of CA I (in words): qualitative statement; for loss of CA I inhibition potency relative to 3a: comparator 3a
Description: (§1) An Applied Photophysics stopped-flow instrument was used to assay the CA catalyzed CO2 hydration activity [14]. […] The uncatalyzed rates were determined in the same manner and subtracted from the total observed rates. Stock solutions of the inhibitor (0.1 mM) were prepared in distilled–deionized water and dilutions up to 0.01 nM were done thereafter with the assay buffer. Inhibitor and enzyme solutions were preincubated together for 15 min at room temperature prior to the assay to allow for the formation of the E–I complex. The inhibition constants were obtained by non-linear least-squares methods using PRISM 3 and the Cheng–Prusoff equation, as reported earlier, and represent the mean from at least three different determinations. All CA isoforms were recombinant proteins obtained in house, as reported earlier [1, 12, 13].

human CA II [2] = molecular target: T2, human CA II (Homo sapiens, UniProt P00918); experiment: stopped-flow CO2 hydrase assay, CA II inhibition
Description: as §1

human CA IX [3] = molecular target: T3, human CA IX (Homo sapiens, UniProt Q16790); experiment: stopped-flow CO2 hydrase assay, CA IX inhibition; conditions: for SI (IX/II): ratio KI CA IX / KI CA II
Description: as §1

human CA XII [4] = molecular target: T4, human CA XII (Homo sapiens, UniProt O43570); experiment: stopped-flow CO2 hydrase assay, CA XII inhibition
Description: as §1

human CA I [5] = molecular target: T1, human CA I; parameters: made in house; method as in PMID 31076951; conditions: stopped-flow CO2 hydrase assay; compound marked with a reference in Table 1; cited from earlier work
human CA II [6] = molecular target: T2, human CA II; parameters: made in house; method as in PMID 31076951; conditions: stopped-flow CO2 hydrase assay; compound marked with a reference in Table 1; cited from earlier work
human CA IX [7] = molecular target: T3, human CA IX; parameters: made in house; method as in PMID 31076951; conditions: stopped-flow CO2 hydrase assay; compound marked with a reference in Table 1; cited from earlier work
human CA XII [8] = molecular target: T4, human CA XII; parameters: made in house; method as in PMID 31076951; conditions: stopped-flow CO2 hydrase assay; compound marked with a reference in Table 1; cited from earlier work

T4 sequence (O43570 25-354): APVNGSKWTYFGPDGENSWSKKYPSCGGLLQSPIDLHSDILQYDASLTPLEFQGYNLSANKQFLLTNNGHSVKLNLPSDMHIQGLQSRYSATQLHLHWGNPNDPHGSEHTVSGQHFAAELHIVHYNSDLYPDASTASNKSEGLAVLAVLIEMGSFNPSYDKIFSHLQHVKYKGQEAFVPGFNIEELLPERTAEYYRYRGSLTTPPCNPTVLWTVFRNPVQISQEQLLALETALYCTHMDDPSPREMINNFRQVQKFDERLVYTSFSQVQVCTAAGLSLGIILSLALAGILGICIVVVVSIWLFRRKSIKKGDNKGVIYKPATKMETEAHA
T1 sequence (P00915 whole entry): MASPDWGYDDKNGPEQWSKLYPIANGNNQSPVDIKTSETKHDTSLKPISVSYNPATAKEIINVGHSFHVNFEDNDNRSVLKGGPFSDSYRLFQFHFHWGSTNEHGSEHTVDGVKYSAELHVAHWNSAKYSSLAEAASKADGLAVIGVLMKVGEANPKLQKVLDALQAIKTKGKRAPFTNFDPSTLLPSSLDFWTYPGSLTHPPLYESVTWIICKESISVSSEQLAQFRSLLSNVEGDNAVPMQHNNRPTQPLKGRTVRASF

In the case of `NS(=O)(=O)c1ccc(O)c(NC(=O)N2CCN(CC(=O)NC3CCCCC3)CC2)c1` [Compound 3i, 4-(2-(Cyclohexylamino)-2-oxoethyl)-N-(2-hydroxy-5-sulfamoylphenyl)piperazine-1-carboxamide], the pKi (human CA I [1]) was 6.16, the “inhibition of CA I (in words)” value (human CA I [1]; CA I) was “did not result in appreciable inhibition” and the pKi (human CA II [2]) was 6.39. The pKi (human CA IX [3]) was 6.69, the “SI (IX/II)” value (human CA IX [3]) was 0.50 and the pKi (human CA XII [4]) was 7.47.
In the case of `NS(=O)(=O)c1ccc(O)c(NC(=O)NCCc2ccccn2)c1` [Compound 3h, 4-Hydroxy-3-(3-(2-(pyridin-2-yl)ethyl)ureido)benzenesulfonamide], the pKi (human CA I [5]) is given as 6.24, the pKi (human CA II [6]) is given as 6.48 and the pKi (human CA IX [7]) is given as 9.62. The pKi (human CA XII [8]) was 7.18, the “CA I potency increase relative to 3d” value (human CA I [1]; CA I, comparator 3d) was 1.2 fold and the “SI (IX/II)” value (human CA IX [3]) was 0.0007.
With `NS(=O)(=O)c1ccc(O)c(NC(=O)N2CCOCC2)c1` [Compound 3c, N-(2-Hydroxy-5-sulfamoylphenyl)morpholine-4-carboxamide] the pKi (human CA I [1]) was 5.40, the “loss of CA I inhibition potency relative to 3a” value (human CA I [1]; CA I) was 6.9 fold and the pKi (human CA II [2]) was 5.10. For the same compound, the pKi (human CA IX [3]) was 6.85, the “CA IX potency increase relative to 3b” value (human CA IX [3]; CA IX, comparator 3b) was 2.2 fold and the “SI (IX/II)” value (human CA IX [3]) was 0.017. It also gave a pKi (human CA XII [4]) of 7.13.
`NS(=O)(=O)c1ccc(O)c(NC(=O)NCCN2CCCCC2)c1` [Compound 3d, 4-Hydroxy-3-(3-(2-(piperidin-1-yl)ethyl)ureido)benzenesulfonamide] showed a pKi (human CA I [1]) of 6.16, a pKi (human CA II [2]) of 6.54 and a pKi (human CA IX [3]) of 5.39. The “SI (IX/II)” value (human CA IX [3]) was 14.3 and the pKi (human CA XII [4]) was 6.18.
In the case of `NS(=O)(=O)c1ccc(O)c(NC(=O)N2CCCCC2)c1` [Compound 3b, N-(2-Hydroxy-5-sulfamoylphenyl)piperidine-1-carboxamide], the pKi (human CA I [1]) was 5.06, the “loss of CA I inhibition potency relative to 3a” value (human CA I [1]; CA I) was 14.8 fold and the pKi (human CA II [2]) was 6.04. For the same compound, the “more effective on CA II than 3a” value (human CA II [2]; CA II, comparator 3a) was 3.5 fold, the pKi (human CA IX [3]) was 6.51 and the “more effective on CA IX than 3a” value (human CA IX [3]; CA IX, comparator 3a) was 1.2 fold. For the same compound, the “SI (IX/II)” value (human CA IX [3]) was 0.34 and the pKi (human CA XII [4]) was 6.30.
In the case of `NS(=O)(=O)c1ccc(O)c(NC(=O)NCc2ccncc2)c1` [Compound 3g, 4-Hydroxy-3-(3-(pyridin-4-ylmethyl)ureido)benzenesulfonamide], the pKi (human CA I [5]) is listed as 7.05, the pKi (human CA II [6]) is listed as 6.33 and the pKi (human CA IX [7]) is listed as 9.52. The pKi (human CA XII [8]) was 7.07, the “more potent on CA I compared to AAZ” value (human CA I [1]; CA I, comparator AAZ) was “up to 2.8 fold” and the “SI (IX/II)” value (human CA IX [3]) was 0.0006.
In the case of `NS(=O)(=O)c1ccc(CCNC(=O)Nc2ccccc2O)cc1` [Compound 3k, 4-(2-(3-(2-Hydroxyphenyl)ureido)ethyl)benzenesulfonamide], the “inhibition of CA I (in words)” value (human CA I [1]; CA I) was “did not result in appreciable inhibition”, the pKi (human CA II [2]) was 7.12 and the “less effective on CA II than AAZ” value (human CA II [2]; CA II, comparator AAZ) was 6.3 fold. The pKi (human CA IX [3]) was 7.46, the “SI (IX/II)” value (human CA IX [3]) was 0.77 and the pKi (human CA XII [4]) was 6.62.
In the case of `CCN1CCN(C(=O)Nc2cc(S(N)(=O)=O)ccc2O)CC1` [Compound 3f, 4-Ethyl-N-(2-hydroxy-5-sulfamoylphenyl)piperazine-1-carboxamide], the pKi (human CA I [1]) was 5.05, the “decrease of CA I affinity relative to 3d” value (human CA I [1]; CA I, comparator 3d) was 13.1 fold and the pKi (human CA II [2]) was 5.11. For the same compound, the pKi (human CA IX [3]) was 5.67, the “SI (IX/II)” value (human CA IX [3]) was 0.28 and the pKi (human CA XII [4]) was 6.30. For the same compound, the “more effective CA XII inhibitor than 3d” value (human CA XII [4]; CA XII, comparator 3d) was 1.3 fold.
Compound `NS(=O)(=O)c1ccc(O)c(NC(=O)N2CCCC2)c1` [Compound 3a, N-(2-Hydroxy-5-sulfamoylphenyl)pyrrolidine-1-carboxamide] has a pKi (human CA I [1]) of 6.23, a pKi (human CA II [2]) of 5.50 and a pKi (human CA IX [3]) of 6.43. The “SI (IX/II)” value (human CA IX [3]) was 0.12, the pKi (human CA XII [4]) was 7.04 and the “more effective CA XII inhibitor than 3b” value (human CA XII [4]; CA XII, comparator 3b) was 5.5 fold.
In the case of `NS(=O)(=O)c1ccc(O)c(NC(=O)NCCN2CCOCC2)c1` [Compound 3e, 4-Hydroxy-3-(3-(2-morpholinoethyl)ureido)benzenesulfonamide], the pKi (human CA I [1]) was 5.04, the “decrease of CA I affinity relative to 3d” value (human CA I [1]; CA I, comparator 3d) was 13.4 fold and the pKi (human CA II [2]) was 5.52. For the same compound, the pKi (human CA IX [3]) was 5.67, the “more potent CA IX inhibition compared to 3d” value (human CA IX [3]; CA IX, comparator 3d) was 1.9 fold and the “SI (IX/II)” value (human CA IX [3]) was 0.71. The pKi (human CA XII [4]) was 6.20.
For `NS(=O)(=O)c1ccc(O)c(NC(=O)NCCCCO)c1` [Compound 3j, 4-Hydroxy-3-(3-(4-hydroxybutyl)ureido)benzenesulfonamide], the pKi (human CA II [6]) is given as 6.55, the pKi (human CA IX [7]) is given as 6.67 and the pKi (human CA XII [8]) is given as 7.33. For the same compound, the “inhibition of CA I (in words)” value (human CA I [1]; CA I) was “did not result in appreciable inhibition” and the “SI (IX/II)” value (human CA IX [3]) was 0.46.
